# Assay results as given in PMC6260619, “Selective Cytotoxicity of Goniothalamin against Hepatoblastoma HepG2 Cells” (Molecules, 2011).
# Assays:
# Format in all cases: cell-based, human
# Chang cells [1] = test: Cell cycle PI analysis by flow cytometry, Chang
# Procedure: The effect of goniothalamin on the cell cycle distribution of non-malignant Chang cells was also assessed. […] Accordingly, goniothalamin induced a marked apoptosis in a time-dependent manner at IC50 concentrations. As expected, the increase in the apoptotic population was associated with a concomitant enlargement of the pre-phase population, as observed in cell cycle analysis.
# (§1) The treated cells were trypsinized and washed with PBS. After centrifugation, the supernatant was removed. Then, 1 × 10^6 cells were harvested and fixed in ice-cold ethanol (70%). The fixed cells were centrifuged at high speed (180 × g) for 10 minutes to adequately pellet down the cells that were suspended in the ethanol. The pellet was washed by the ice-cold PBS and then centrifuged again at 180 × g for 10 minutes. The final pellet was resuspended with 1 mL of RNase and incubated at 37 °C for 30 minutes. At the end of incubation, DNA binding dye PI (1 mg/mL) was added to give a final concentration of 50 µg/mL. The mixture was incubated at room temperature for 10 min in the dark. Data acquisition and analysis were performed in by flow cytometry FACS Calibur flow cytometer (Becton Dickinson, Franklin Lakes, NJ, USA) using CellQuest 3.3 software.
# HepG2 cells [2] = test: Cell cycle PI analysis by flow cytometry, HepG2
# Procedure: The ability of a substance to affect specific phases of the cell cycle may provide clues as to its mechanism(s) of action. To determine the effects of goniothalamin on the cell cycle, HepG2 cells were treated with IC50 levels of goniothalamin (determined from the MTT assay) for 24, 48 and 72 hours, respectively. The cells were stained with PI and the DNA contents analyzed by flow cytometry.
# as §1
# HepG2 cells [3] = test: Trypan blue dye exclusion viable cell count, HepG2
# Procedure: As supported by MTT and LDH results, goniothalamin inhibited cell proliferation towards HepG2 in a time- and dose-dependent manner as shown in the BrdU incorporation ELISA method. The effects of goniothalamin on HepG2 and Chang cell growth were also analyzed by viable cell counts using trypan blue dye exclusion assay for 24, 48 and 72 hours after treatment with different doses of goniothalamin. […] The ratio between viable cell numbers in goniothalamin-treated cells and control cells was reported as the Viablity Index (VI, Figure 5A and Figure 5B).
# A half mL aliquot of cell suspension (obtained from treated and non-treated HepG2 and Chang cells), was mixed with 0.5 mL of 0.4% trypan blue dye and left for 5 min at room temperature). The cells were counted using the hemacytometer and the percentage of dead cells was determined.
# Chang cells [4] = test: MTT cytotoxicity assay, Chang; conditions: for IC50: read-out: IC50 from MTT
# Procedure: HepG2 and Chang cells were plated at 1 × 10^4 cells/well by adding 200 μL of a 5 × 10^4 cells/mL suspension to each well of a 96-well tissue culture plate. The plate was incubated for a sufficient time to assure attachment and 40% to 60% confluency. […] The last row was left as an untreated control. The plates were incubated at 37 °C, 5% CO2, for 24, 48 and 72 hours, respectively. After incubation with compounds, the media was aspirated off and replaced with fresh media. Then, MTT solution (20 μL) for a total volume of 200 μL was added in every well and incubated for 4 to 6 hours at 37 °C with 5% CO2. After that, MTT-containing medium was removed gently and replaced with DMSO (200 μL per well) to mix the formazan crystals until dissolved. The plates were read on microtiter plate reader at 570 nm. For each compound tested, the IC50 (concentration of drug needed to inhibit cell growth by 50%) is generated from the dose-response curves for each cell line.
# Chang cells [5] = test: LDH leakage assay, Chang; conditions: for IC50: read-out: IC50 from LDH
# Procedure: Measurement of LDH activity is another indicator of cell viability through evaluation of the cell membrane permeability. The enzyme activity is measured externally, as it leaks from dead cells which lose their membrane integrity. LDH leakage detection is based on the loss of NADH due to its oxidation to NAD^+, resulting in the conversion of pyruvate to lactate. Untreated cells should retain LDH in their cells and have minimal loss over the time of the assay. Triton X-100-treated cells that give the maximum loss of LDH were used as the positive control in this assay.
# To determine the effect of goniothalamin on membrane permeability in HepG2 and Chang cell lines, a lactate dehydrogenase (LDH) release assay was used. The cells were seeded in 96-well culture plates at a density of 2 × 10^4 cells/well in 100 μL volume and allowed to grow for 18 hours before treatment. After treatment, the plates were incubated for 24, 48 and 72 hours, respectively. Then, the supernatant (40 μL) was transferred to a new 96 well to determine LDH release and 6% triton X-100 (40 μL) was added to the original plate for determination of total LDH. An aliquot of 0.1 M potassium phosphate buffer (100 μL, pH 7.5) containing 4.6 mM pyruvic acid was mixed to the supernatant using repeated pipetting. Then, 0.1 M potassium phosphate buffer (100 μL, pH 7.5) containing 0.4 mg/mL reduced β-NADH was added to the wells. The kinetic changes were read for 1 min using ELISA microplate reader in absorbance at wavelength 340 nm. This procedure was repeated with 40 μL of the total cell lysate to determine total LDH U/well. A change of 0.001 absorbance units/min is equivalent to 1 U/L of LDH activity. The percentage of LDH release was determined by dividing the LDH released into the media by the total LDH following cell lysis in the same well.
# [6] = 24h, at IC50 (goniothalamin 79.10 µM; doxorubicin 0.83 µM)
# [7] = 48h, at IC50 (goniothalamin 63.75 µM; doxorubicin 0.41 µM)
# [8] = 72h, at IC50 (goniothalamin 35.01 µM; doxorubicin 0.28 µM)
# [9] = HepG2, 24h, at IC50 (goniothalamin 9.2 µM; doxorubicin 2.2 µM)
# [10] = HepG2, 48h, at IC50 (goniothalamin 8.3 µM; doxorubicin 4.3 µM)
# [11] = HepG2, 72h, at IC50 (goniothalamin 4.6 µM; doxorubicin […])
structure (smiles),measurement,setting,value
"O=C1C=CC[C@H](/C=C/c2ccccc2)O1 [Goniothalamin, 5-hydroxy-7-phenylhepta-2,6-dienoic acid lactone]",G0/G1,Chang cells [1]; [6],55.08 ± 3.60%
same,G2+M,Chang cells [1]; [6],14.89 ± 5.53%
same,S,Chang cells [1]; [6],12.65 ± 2.79%
same,SubG0/G1,Chang cells [1]; [6],17.38 ± 7.29%
same,G0/G1,Chang cells [1]; [7],58.68 ± 9.45%
same,G2+M,Chang cells [1]; [7],2.5 ± 5.89%
same,S,Chang cells [1]; [7],5.82 ± 0.16%
same,SubG0/G1,Chang cells [1]; [7],33.00 ± 3.40%
same,G0/G1,Chang cells [1]; [8],11.60 ± 0.07%
same,G2+M,Chang cells [1]; [8],2.5 ± 0.44%
same,S,Chang cells [1]; [8],4.91 ± 0.13%
same,SubG0/G1,Chang cells [1]; [8],80.99 ± 0.64%
same,G0/G1,HepG2 cells [2]; [9],68.92 ± 1.27%
same,G2+M,HepG2 cells [2]; [9],5.94 ± 0.22%
same,S,HepG2 cells [2]; [9],7.68 ± 0.12%
same,SubG0/G1,HepG2 cells [2]; [9],17.44 ± 1.67%
same,G0/G1,HepG2 cells [2]; [10],39.71 ± 3.50%
same,G2+M,HepG2 cells [2]; [10],5.67 ± 4.13%
same,S,HepG2 cells [2]; [10],8.03 ± 0.29%
same,SubG0/G1,HepG2 cells [2]; [10],46.59 ± 2.79%
same,G0/G1,HepG2 cells [2]; [11],31.79 ± 5.82%
same,G2+M,HepG2 cells [2]; [11],2.31 ± 4.19%
same,S,HepG2 cells [2]; [11],7.07 ± 0.18%
same,SubG0/G1,HepG2 cells [2]; [11],58.83 ± 2.09%
same,SubG0/G1,"HepG2 cells [2]; HepG2, 72h, at IC50 (goniothalamin 4.6 µM; doxorubicin […]), listed as goniothalamin",59%
same,"viability (cell count, trypan blue)","HepG2 cells [3]; HepG2, 2.3 µM",significantly inhibited
same,Viability Index,"HepG2 cells [3]; HepG2, at IC50, 72 hours",52 ± 1.73%
same,inhibition at 4.6 µM,"HepG2 cells [3]; Homo sapiens, HepG2, 4.6 µM, 72 hours, read-out: inhibition of cell growth (trypan blue)",52%
same,inhibition at 8.3 µM,"HepG2 cells [3]; Homo sapiens, HepG2, 8.3 µM, 48 hours, read-out: inhibition of cell growth (trypan blue)",64%
same,inhibition at 9.2 µM,"HepG2 cells [3]; Homo sapiens, HepG2, 9.2 µM, 24 hours, read-out: inhibition of cell growth (trypan blue)",79%
same,decrease of cell growth vs untreated control,"Chang cells [4]; 37.5 μM, 24 hours",39%
same,decrease of cell growth vs untreated control,"Chang cells [4]; 37.5 μM, 48 hours",44%
same,decrease of cell growth vs untreated control,"Chang cells [4]; 37.5 μM, 72 hours",54%
same,decrease of cell growth vs untreated control,"Chang cells [4]; 75 μM, 24 hours",approximately 49%
same,decrease of cell growth vs untreated control,"Chang cells [4]; 75 μM, 48 hours",~53%
same,decrease of cell growth vs untreated control,"Chang cells [4]; 75 μM, 72 hours",~63%
same,IC50,Chang cells [4]; 72 hours,35 µM
same,IC50,"Chang cells [4]; Homo sapiens, 24 h",79.1 µM
same,IC50,"Chang cells [4]; Homo sapiens, 48 h",63.8 µM
same,IC50,"Chang cells [4]; Homo sapiens, 72 h",35 µM
same,increase in LDH leakage,"Chang cells [5]; Chang, 4.7 µM, 72 hours",19%
same,loss of viability (LDH leakage),"Chang cells [5]; Chang, 37.5 µM",≤ 52%
same,toxicity (LDH leakage),"Chang cells [5]; Chang, 2.3, 4.7 or 9.4 µM, on completion of incubation",no significant toxicity
same,IC50,"Chang cells [5]; Chang, 72 hours",32.5 µM
same,IC50,"Chang cells [5]; Homo sapiens, 24 h, Chang, 24 hours",69.6 µM
same,IC50,"Chang cells [5]; Homo sapiens, 48 h, Chang, 48 hours",55.1 µM
same,IC50,"Chang cells [5]; Homo sapiens, 72 h, Chang, 72 hours",32.5 µM
